The values below come from patent US7488576B2, “Methods for diagnosis and treatment of psychiatric disorders” (The Regents of the University of California, priority 2000, dated 2009).

In one experiment the test system is MALS-1. Briefly: Gene expression in rat brain after stimulant treatment (Affymetrix U34A GeneChip), prefrontal cortex. The note with it: 24 h, read-out: Fold Induction of MALS-1. The method, then: (§1) In experiments conducted during the development of the present invention, the rat animal model was used. This model is commonly accepted by those in the art for experiments involving psychiatric disorders. In some experiments, rats were treated with a single dose of methamphetamine (4 mg/kg) and sacrificed 24 hours later. This timepoint was chosen as that most likely to detect changes of relevance to mania and psychosis. It was hypothesized that at 24 hours, most short term gene induction relevant to acute intoxication and behavioral activation would have subsided. […] As mania and psychosis are typically chronic processes in man, more persistent gene changes are more likely to be central to pathophysiological mechanisms. Gene expression was examined in the prefrontal cortex and amygdala, using the Afymetrix U34A GeneChip, which interrogates approximately 7,000 known genes and 1,000 ESTs (expressed sequence tags) using an oligonucleotide nicroarray (See, Lipshutz et al., Nat. Genet. 21:20 [1999]). These brain regions were chosen based on the extensive literature that highlights their central role in cognition and emotion (See e.g., Heimer and Alheid, Adv. Exp. Med. Biol. 1:295 [1991]).
(§2) A two-fold increase or decrease in expression was chosen as a conventional empirical cut-off. Thus, at least a two-fold change in each of two independent animal experiments was used to select those genes with the most robust and reproducible change in expression. In each experiment, pooled tissues from three methamphetamine-treated and three control rats were used. In these analyses, standard default settings of the Affymetrix GeneChip Expression Algorithm were used. A gene had to be called “Present” and “Changed,” in at least one out of two experiments and had to have an Average Difference Change greater than 50, as well as a fold change greater than 2 in two out of two experiments. […] The genes that were induced more than two-fold in both experiments were also identified by their GenBank accession numbers, as indicated in Tables 1 and 2.
(§3) After 24 hours, the rats were humanely sacrificed and the brains were harvested.
(§4) Tissues from each brain region from the three animals in each experimental group were pooled (i.e., test and control animals). Total RNA was isolated from the tissue using standard protocols known in the art. Briefly, STAT-60 extraction buffer, and phenol/chloroform extraction was used. cDNA was synthesized and used as templates to produce biotin-labelled antisense cRNAs using an in vitro transcription reaction. After fragmentation, the CRNA hybridization cocktail was prepared, cleaned, and applied to the Affymetrix GeneChip oligonucleotide array.
(§5) A two-fold increase or decrease in expression was chosen as a conventional empirical cut-off. […]

A further experiment deals with FDFT1. The experiment is described as above. To be noted: 24 h, read-out: Fold Induction of FDFT1. The method, then:
as §1, §2, §3, §4, §5

A further experiment relates to GRK3. The description is as above. The note with it: 24 h, read-out: Fold Induction of GRK3. The method, then:
as §1, §2, §3, §4, §5

The test system of the next experiment is DBP. The description is as above. The note with it: 24 h, read-out: Fold Induction of DBP. On the procedure:
as §1, §2, §3, §4, §5

A further experiment relates to SULT1A1. The experiment can be described thus: Gene expression in rat brain after stimulant treatment (Affymetrix U34A GeneChip), amygdala. The note with it: 24 h, read-out: Fold Induction of SULT1A1. The method, then: as §1, §2, §3, §4
(§6) A two-fold increase or decrease in expression was chosen as a conventional empirical cut-off. Thus, at least a two-fold change in each of two independent animal experiments was used to select those genes with the most robust and reproducible change in expression. In these analyses, standard default settings of the Affymetrix GeneChip Expression Algorithm were used.

Another experiment deals with POLR2F. Described as above. The note with it: 24 h, read-out: Fold Induction of POLR2F. On the procedure: as §1, §2, §3, §4, §6
Another experiment concerns NDUFS8. Described as above. The note with it: 24 h, read-out: Fold Induction of NDUFS8. The method, then:
as §1, §2, §3, §4, §6

The test system of a further experiment is IGF1. The description is as above. The note with it: 24 h, read-out: Fold Induction of IGF1. The method, then: as §1, §2, §3, §4, §6
The next experiment concerns ADORA3. Described as above. The note with it: 24 h, read-out: Fold Induction of ADORA3. The method, then:
as §1, §2, §3, §4, §6

The test system of the next experiment is FCGRT. The experiment is described as above. The note with it: 24 h, read-out: Fold Induction of FCGRT. The method, then: as §1, §2, §3, §4, §6
Another experiment has as its system NTRK3. The experiment is described as above. The note with it: 24 h, read-out: Fold Induction of NTRK3. On the procedure:
as §1, §2, §3, §4, §6

The next experiment has as its system HSPB1. Described as above. To be noted: 24 h, read-out: Fold Induction of HSPB1. The method, then:
as §1, §2, §3, §4, §6

For a further experiment, the system named is FEZ2. The experiment is described as above. To be noted: 24 h, read-out: Fold Induction of FEZ2. The method, then:
as §1, §2, §3, §4, §6

For another experiment, the system named is FGFR1. The experiment can be described thus: Gene expression in rat brain after stimulant treatment (Affymetrix U34A GeneChip). It is filed as in vivo. To be noted: 24 hours after single dose 4 mg/kg. The method, then:
as §1
(§7) A two-fold increase or decrease in expression was chosen as a conventional empirical cut-off. Thus, at least a two-fold change in each of two independent animal experiments was used to select those genes with the most robust and reproducible change in expression. In each experiment, pooled tissues from three methamphetamine-treated and three control rats were used. In these analyses, standard default settings of the Affymetrix GeneChip Expression Algorithm were used. A gene had to be called “Present” and “Changed,” in at least one out of two experiments and had to have an Average Difference Change greater than 50, as well as a fold change greater than 2 in two out of two experiments. […] The genes that were induced more than two-fold in both experiments were also identified by their GenBank accession numbers, as indicated in Tables 1 and 2. […]

The subject of the next experiment is GRK2. The description is as above. It is filed as in vivo. The note with it: 24 hours after single dose 4 mg/kg, one value per each of two experiments. The method, then: as §1, §7

Values joined by “and” are separate entries in the source; they are usually repeats but may differ in a detail not shown here. Equal values may be shown once.

As to `CN[C@@H](C)Cc1ccccc1` [methamphetamine], the fold induction at 4 mg/kg was 2.9 in the experiment on MALS-1; 2.9 with FDFT1; 14.2 with GRK3; 7 in the experiment with DBP; 4.3 with SULT1A1; 3.9 with POLR2F. The fold induction at 4 mg/kg amounted to 20.8 in the experiment on NDUFS8; 3 in the experiment on IGF1; 2.7 in the experiment with ADORA3; 3.2 in the experiment with FCGRT; 2.7 with NTRK3; 2.8 in the experiment on HSPB1. Further, the fold induction at 4 mg/kg in the experiment with FEZ2 was 2.3. In the experiment on FGFR1 (average of two experiments), the “average fold change of FGFR1 expression” value amounted to 4.1 fold. Also, in the experiment on FGFR1 (one of the two experiments), the “fold increase of FGFR1 expression in one of the two experiments” value is listed as 1.8 fold. In addition, the “fold changes in GRK2 expression” value with GRK2 was 1.1 fold and 1.0 fold.
